Measured values from PMC8217170, “Phase Ib dose-escalation study of the hypoxia-modifier Myo-inositol trispyrophosphate in patients with hepatopancreatobiliary tumors” (Nature Communications, 2021).

Assay: Phase Ib dose escalation: safety and tolerability (CTCAE v4.03), MTD
Format: in vivo, human
Set-up: key to Hypercalcemia, CTCAE-Grade / Hypophosphatemia, CTCAE-Grade / Cholestasis, CTCAE-Grade / Nausea, CTCAE-Grade / Hypertension, CTCAE-Grade / Upper respiratory tract infection, CTCAE-Grade / Hyponatremia, CTCAE-Grade / Hypomagnesemia, CTCAE-Grade / Ascites & death due to rapid progression of malignancy, CTCAE-Grade / Hypokalemia, CTCAE-Grade / Pyrexia, CTCAE-Grade / Hyperphosphatemia, CTCAE-Grade / AV Block 1°, CTCAE-Grade / Palpations, CTCAE-Grade: 1 is the mildest form of the specific symptom; 5 is death
Settings: for Hypercalcemia, CTCAE-Grade: relationship to IMP: Definitively
Excerpt: This first-in-patient investigator-initiated phase Ib dose-escalation study followed a 3 + 3 dose-escalation scheme with a planned maximal inclusion of 48 participants allocated to eight cohorts of increasing doses. Outcomes were safety, tolerability, pharmacokinetics, and preliminary efficacy of ITPP with participants in this exploratory, prospective, open-label and unblinded, unrandomized, single-center investigation being enrolled at the University Hospital Zurich (USZ), Switzerland. Written informed consent was obtained of all participants before study inclusion after a time of consideration of at least 24 h. Written consent included the reporting and publication of individual, anonymized patient data. The study adhered to the principles of the Declaration of Helsinki, current good clinical practice guidelines and all ethical regulations. The study protocol was approved by the responsible independent ethics committee of Zurich (KEK-ZH-Nr. 2014-0374) and the national regulatory authority Swissmedic (2015DR1009) and is provided in the Supplementary Note 1. The study setup was published before inclusion start[55] and the trial first registered at ClinicalTrials.gov (NCT02528526) on 11/11/2014. After 6 sequential reviews requiring minor editorial changes, final registration at ClinicalTrials.gov was obtained on the 08/18/2015. The first patient was included in the study 04/13/2015, with treatment started on the 04/27/2015. 4 patients were included in the trial before final registration at ClinicalTrials.gov (04/13/2015–07/20/2015). The last patient was included on the 06/12/2018, treatment started on the 06/18/2018 and the last treatment administered on 07/06/2018. Data cut-off for the study was the 12/31/2018. The manuscript was written in compliance with ICMJE guidelines.
Primary objectives were (i) assessment of the safety and tolerability of increasing doses of ITPP, and (ii) establishment of the MTD (primary endpoint) according to the dose escalation schema. The primary outcome was measured by collection of adverse effects information according to Common Terminology Criteria for Adverse Events (CTCAE, US National Cancer Institute, version 4.03). Safety objectives and outcomes were identical with the primary endpoint.
The study drug (brand name: OXY111A) was intravenously administered in 9 infusions, each lasting 8 h, over 3 weeks in an outpatient setting at the Phase 1 unit of the USZ Clinical Trials Center. Due to its anionic properties, ITPP acts a potent chelator of calcium. Therefore, administration with CaCl2 (Baxter) at a 1:0.75 molar ratio has been determined to prevent hypocalcaemia. Respective doses were calculated based on body surface area (DuBois/DuBois formula). Cohort 1 started at weekly doses of 5600 mg/m^2 weekly, equal to the maximal weekly dose tested in healthy volunteers (unpublished data from Normoxys®). Dose escalation was performed according to the predefined scheme (Fig. 1a, Supplementary Note 1: page 6) up to a maximum weekly dose of 43,700 mg/m^2. During infusion days, participants had continuous monitoring of vital signs and daily 12-electrode electrocardiograms. Electrolytes measurements and venous blood gas analyses were performed three-hourly, while complete blood count, coagulation and routine kidney/liver parameters were assessed twice daily.
Severity of encountered AE was assessed following the CTCAE guidelines. Serious AE were defined as events being life-threatening, necessitating hospitalization, resulting in death or birth defects. DLT was defined as any AE ≥ grade 3 and sTET as any grade 2 AE considered to be definitely, probably or possibly related to ITPP. […] MTD was defined as the dose preceding the level at which 1 patient experienced a DLT or ≥3 patients experienced a sTET (Supplementary Note 1: page 6). The window for DLT/sTET/MTD assessment was from first dose of ITPP until first dose of chemotherapy or 10d following the last ITPP infusion. […]

[1] = cohort 1, SAE, relationship to IMP: Unrelated

O=P1(O)OC2C3OP(=O)(O)OP(=O)(O)OC3C3OP(=O)(O)OP(=O)(O)OC3C2OP(=O)(O)O1 (centres unmarked) [ITPP, Myo-inositol trispyrophosphate]
Number of treatment-related toxicities (TET, at least possibly related to ITPP) (28 patients, all cohorts): 32 | Hypomagnesemia, patients (all CTCAE grade I): 5/28 | Hypophosphatemia, patients (all CTCAE grade I): 4/28 | Hypercalcemia of free ionized calcium, share of patients (all cohorts): 67.9 % of patients | Hypercalcemia, share of ITPP-related AE (all cohorts): 59.4% | Hypomagnesemia/-phosphatemia, share of ITPP-related AE (all cohorts): 28.1% | Number of AE unlikely to be ITPP-induced (all cohorts): 24 | Number of serious adverse events (SAE) (all cohorts): 7 | Share of AE at least possibly related to ITPP (all cohorts): 57% | AV Block 1° (AE, not ITPP-related) (all cohorts, n = 28, total (%)): Total: 1 (3.6%) | Acute kidney injury grade 3 (AE, not ITPP-related) (all cohorts, n = 28, total (%)): Total: 1 (3.6%) | Ascites due to oncological progress (AE, not ITPP-related) (all cohorts, n = 28, total (%)): Total: 3 (10.7%) | C. difficile enteritis (AE, not ITPP-related) (all cohorts, n = 28, total (%)): Total: 1 (3.6%) | Cholestasis (AE, not ITPP-related) (all cohorts, n = 28, total (%)): Total: 1 (3.6%) | Fatigue (AE, not ITPP-related) (all cohorts, n = 28, total (%)): Total: 1 (3.6%) | Hypercalcemia (TET) (all cohorts, n = 28, total (%)): 19 (67.9%) | Hyperphosphatemia (TET) (all cohorts, n = 28, total (%)): Total: 1 (3.6%) | Hypertension (TET) (all cohorts, n = 28, total (%)): Total: 3(10.7%) | Hypokalemia (AE, not ITPP-related) (all cohorts, n = 28, total (%)): Total: 2 (7.1%) | Hypomagnesemia (TET) (all cohorts, n = 28, total (%)): Total: 5 (17.9%) | Hyponatremia (AE, not ITPP-related) (all cohorts, n = 28, total (%)): Total: 3 (10.7%) | Hypophosphatemia (TET) (all cohorts, n = 28, total (%)): Total: 4 (14.3%) | Icterus due to malignant obstruction (AE, not ITPP-related) (all cohorts, n = 28, total (%)): Total: 1 (3.6%) | Lower gastrointestinal bleeding (AE, not ITPP-related) (all cohorts, n = 28, total (%)): Total: 1 (3.6%) | Nausea & vomiting due to malignant infiltration of stomach (AE, not ITPP-related) (all cohorts, n = 28, total (%)): Total: 1 (3.6%) | Nausea (AE, not ITPP-related) (all cohorts, n = 28, total (%)): Total: 1 (3.6%) | Neutropenia (AE, not ITPP-related) (all cohorts, n = 28, total (%)): Total: 1 (3.6%) | Palpitations (AE, not ITPP-related) (all cohorts, n = 28, total (%)): Total: 1 (3.6%) | Pyrexia (AE, not ITPP-related) (all cohorts, n = 28, total (%)): Total: 2 (7.1%) | Upper respiratory tract infection (AE, not ITPP-related) (all cohorts, n = 28, total (%)): Total: 3 (10.7%) | Hyperphosphatemia, patients (asymptomatic, grade I): One | AV Block 1° (AE, not ITPP-related) (cohort 1, 1866 mg/m^2): 0 | Acute kidney injury grade 3 (AE, not ITPP-related) (cohort 1, 1866 mg/m^2): 0 | C. difficile enteritis (AE, not ITPP-related) (cohort 1, 1866 mg/m^2): 0 | Cholestasis (AE, not ITPP-related) (cohort 1, 1866 mg/m^2): 0 | Fatigue (AE, not ITPP-related) (cohort 1, 1866 mg/m^2): 0 | Hypercalcemia (TET) (cohort 1, 1866 mg/m^2): 0 | Hyperphosphatemia (TET) (cohort 1, 1866 mg/m^2): 0 | Hypertension (TET) (cohort 1, 1866 mg/m^2): 0 | Hypokalemia (AE, not ITPP-related) (cohort 1, 1866 mg/m^2): 0 | Hypomagnesemia (TET) (cohort 1, 1866 mg/m^2): 0 | Hyponatremia (AE, not ITPP-related) (cohort 1, 1866 mg/m^2): 0 | Hypophosphatemia (TET) (cohort 1, 1866 mg/m^2): 0 | Icterus due to malignant obstruction (AE, not ITPP-related) (cohort 1, 1866 mg/m^2): 0 | Nausea & vomiting due to malignant infiltration of stomach (AE, not ITPP-related) (cohort 1, 1866 mg/m^2): 0 | Nausea (AE, not ITPP-related) (cohort 1, 1866 mg/m^2): 0 | Neutropenia (AE, not ITPP-related) (cohort 1, 1866 mg/m^2): 0 | Palpitations (AE, not ITPP-related) (cohort 1, 1866 mg/m^2): 0 | Upper respiratory tract infection (AE, not ITPP-related) (cohort 1, 1866 mg/m^2): 0 | Pyrexia, CTCAE-Grade (cohort 1, AE, relationship to IMP: Unrelated): 1 | Ascites & death due to rapid progression of malignancy, CTCAE-Grade [1]: 5 | Lower gastrointestinal bleeding, CTCAE-Grade [1]: 2 | AV Block 1° (AE, not ITPP-related) (cohort 2, 3732 mg/m^2): 0 | Acute kidney injury grade 3 (AE, not ITPP-related) (cohort 2, 3732 mg/m^2): 0 | Ascites due to oncological progress (AE, not ITPP-related) (cohort 2, 3732 mg/m^2): 0 | C. difficile enteritis (AE, not ITPP-related) (cohort 2, 3732 mg/m^2): 0 | Cholestasis (AE, not ITPP-related) (cohort 2, 3732 mg/m^2): 0 | Fatigue (AE, not ITPP-related) (cohort 2, 3732 mg/m^2): 0 | Hyperphosphatemia (TET) (cohort 2, 3732 mg/m^2): 0 | Hypertension (TET) (cohort 2, 3732 mg/m^2): 0 | Hypokalemia (AE, not ITPP-related) (cohort 2, 3732 mg/m^2): 0 | Hyponatremia (AE, not ITPP-related) (cohort 2, 3732 mg/m^2): 0 | Hypophosphatemia (TET) (cohort 2, 3732 mg/m^2): 0 | Icterus due to malignant obstruction (AE, not ITPP-related) (cohort 2, 3732 mg/m^2): 0 | Lower gastrointestinal bleeding (AE, not ITPP-related) (cohort 2, 3732 mg/m^2): 0 | Nausea (AE, not ITPP-related) (cohort 2, 3732 mg/m^2): 0 | Neutropenia (AE, not ITPP-related) (cohort 2, 3732 mg/m^2): 0 | Palpitations (AE, not ITPP-related) (cohort 2, 3732 mg/m^2): 0 | Pyrexia (AE, not ITPP-related) (cohort 2, 3732 mg/m^2): 0 | Upper respiratory tract infection (AE, not ITPP-related) (cohort 2, 3732 mg/m^2): 0 | Hypercalcemia, CTCAE-Grade (cohort 2, AE): 1 | Hypomagnesemia, CTCAE-Grade (cohort 2, AE, relationship to IMP: Probably): 1 | Nausea & Vomiting necessitating hospitalisation, CTCAE-Grade (cohort 2, SAE, relationship to IMP: Unrelated): 2 | AV Block 1° (AE, not ITPP-related) (cohort 3, 5600 mg/m^2): 0 | Acute kidney injury grade 3 (AE, not ITPP-related) (cohort 3, 5600 mg/m^2): 0 | Ascites due to oncological progress (AE, not ITPP-related) (cohort 3, 5600 mg/m^2): 0 | Fatigue (AE, not ITPP-related) (cohort 3, 5600 mg/m^2): 0 | Hyperphosphatemia (TET) (cohort 3, 5600 mg/m^2): 0 | Hypertension (TET) (cohort 3, 5600 mg/m^2): 0 | Hypokalemia (AE, not ITPP-related) (cohort 3, 5600 mg/m^2): 0 | Hypomagnesemia (TET) (cohort 3, 5600 mg/m^2): 0 | Hyponatremia (AE, not ITPP-related) (cohort 3, 5600 mg/m^2): 0 | Icterus due to malignant obstruction (AE, not ITPP-related) (cohort 3, 5600 mg/m^2): 0 | Lower gastrointestinal bleeding (AE, not ITPP-related) (cohort 3, 5600 mg/m^2): 0 | Nausea & vomiting due to malignant infiltration of stomach (AE, not ITPP-related) (cohort 3, 5600 mg/m^2): 0 | Nausea (AE, not ITPP-related) (cohort 3, 5600 mg/m^2): 0 | Neutropenia (AE, not ITPP-related) (cohort 3, 5600 mg/m^2): 0 | Pyrexia (AE, not ITPP-related) (cohort 3, 5600 mg/m^2): 0 | Upper respiratory tract infection (AE, not ITPP-related) (cohort 3, 5600 mg/m^2): 0 | Hypercalcemia, CTCAE-Grade (cohort 3, AE): 1 | Hypophosphatemia, CTCAE-Grade (cohort 3, AE, relationship to IMP: Probably): 1 | Palpations, CTCAE-Grade (cohort 3, AE, relationship to IMP: Unrelated): 1 | Cholestasis, CTCAE-Grade (cohort 3, SAE, relationship to IMP: Unlikely): 1 | C. difficile enteritis, CTCAE-Grade (cohort 3, SAE, relationship to IMP: Unrelated): 3 | AV Block 1° (AE, not ITPP-related) (cohort 4, 7000 mg/m^2): 0 | C. difficile enteritis (AE, not ITPP-related) (cohort 4, 7000 mg/m^2): 0 | Cholestasis (AE, not ITPP-related) (cohort 4, 7000 mg/m^2): 0 | Hyperphosphatemia (TET) (cohort 4, 7000 mg/m^2): 0 | Hypokalemia (AE, not ITPP-related) (cohort 4, 7000 mg/m^2): 0 | Hypomagnesemia (TET) (cohort 4, 7000 mg/m^2): 0 | Hyponatremia (AE, not ITPP-related) (cohort 4, 7000 mg/m^2): 0
